Test results taken from patent publication US20240390355A1, “IRHOM2 INHIBITORS AND USES THEREOF” (NEW YORK SOCIETY FOR THE RELIEF OF THE RUPTURED AND …, priority 2021, published 2024).

How the values were obtained:
Assay type in all cases: cell-based
[1] = test system: TNFα release from THP-1 cells; test: Primary screen (Example 1a): LPS-stimulated TNFα release from THP-1 cells, HTRF; settings: Homo sapiens, 100 ng/mL LPS, 3 h, normalised to 50 μM Batimastat, read-out: Primary Screen XC50 TNFα
Procedure: (§1) Two separate screens to identify novel small molecule inhibitors of iRhom2/ADAM17 activity were developed. […] Therefore, the primary screen for small molecule inhibitors of iRhom2/ADAM17 was a screen for inhibitors that blocked the release of TNFα from LPS-stimulated THP-1 human myeloid cells, a process that depends on iRhom2 and ADAM17. Since the release of TNFα from THP-1 cells can be blocked at many stages of the LPS/TLR4/iRhom2/ADAM17 pathway, a secondary screen was performed for another iRhom2/ADAM17 selective substrate, Kit-ligand 2 (KL-2) (Maretzky T et al. (July 2013), “iRhom2 controls the substrate selectivity of stimulated ADAM17-dependent ectodomain shedding”, PNAS 110(28): 11433-11438) in a different human cell type, human embryonic kidney cells (HEK 293).
THP-1 cells were plated in 384 or 1,536 wells and transferred on the ultra-high throughput screening (uHTS) platform Mark III, and TNFα shedding was initiated by LPS stimulation of THP-1 cells. The extent of released TNFα was detected with the corresponding HTRF antibodies labeled with europium cryptate (donor) and d2 (acceptor). The HTRF signal was generated by proximity of europium cryptate and d2. All detection reagents were purchased from Cisbio. TNFα detection was performed according to the manufacturer's protocol (Product Insert for Cisbio TNFα (h) Kit Part #62HTNFAPEG & 62HTNFAPEH;
7.5 nL compound and controls in DMSO [10 μM in assay; 0.25% DMSO in 3 [μL Assay] were dissolved in 2 μL cell suspension [2.4E6/mL; 4800 cells/well; culture w/o PenStrep], pre-incubated at 37° C., 5% CO2, for 15 min with 1 μL LPS [100 ng/mL in 3 μL assay]. The cells were incubated at 37° C., 5% CO2, for 3 h with 2 μL of the HTRF-mix [1:300 f.c.]. After an incubation at room temperature for 2 h or longer, the HTRF readout was performed. Then data evaluation for normalization against the 50 μM Batimastat control (=100% […]) was applied. As an additional control, 300 nM Batimastat was used to monitor performance of cells and assay sensitivity over time.

[2] = test system: TGFα release from HEK-293 cells; test: Counter screen (Example 4a): PMA-stimulated TGFα release from HEK-293 cells, AP readout; settings: Homo sapiens, HEK293, HEK-293 cells expressing TGFα-AP, PMA 100 ng/mL, 2 h, read-out: Counter Screen XC50 TGFα
Procedure: A tertiary counterscreen was also performed to monitor the release of TGFα, which is a substrate of iRhom1/ADAM17 and iRhom2/ADAM17, so its release should not be blocked by an iRhom2-selective inhibitor (Maretzky T et al. (July 2013), “iRhom2 controls the substrate selectivity of stimulated ADAM17-dependent ectodomain shedding”, PNAS 110(28): 11433-11438; and Li X et al. (May 2015), “iRhoms 1 and 2 are essential upstream regulators of ADAM17-dependent EGFR signaling”, PNAS 112(19): 6080-6085).
(§2) First, expression plasmids for alkaline phosphatase (AP)-fused KL2 and TGFα were designed and generated through gene synthesis followed by subcloning into the pcDNA3.1(+)/Hygro expression vector. […] Subsequently, DNA amplifications were performed to obtain sufficient amounts of the expression vectors. The quality of DNA and gene sequences were confirmed through restriction digest and Sanger sequencing. In parallel, cell culture of THP-1 and HEK-293 cells was initiated. Master and working cell banks were prepared. Both cell lines were scaled up and transfected with the respective constructs by electroporation. During cell culturing, cell density and viability were monitored to ensure optimal conditions for the transfections. After PMA stimulation, AP-coupled KL2 or TGFα were detected by measurement of AP activity in the supernatant. […] In contrast, THP-1 cells turned out to be not a suitable transfection host resulting in a loss of cell viability after transfection. The decision was made to proceed with HEK-293 for both selectivity assays and to establish polyclonal cell lines stably expressing AP-coupled KL2 or TGFα.
(§3) After electroporation, cells were further cultured in presence of selection antibiotics, hygromycin B, to generate stably transfected polyclonal cell pools. For both assays, KL2 and TGFα shedding, the respective selected pool turned out to be suitable. Final assay conditions were determined for the selected pools. For all experiments, batimastat (30 μM) was used as positive control for full inhibition of KL2 or TGFα shedding.
(§4) 60 μL of cells (20,000/well) were added to a sterile 384-well plate. After incubation overnight at 37° C. (5% CO2), 50 μL medium were removed and 20 μL of prediluted compounds were added to the cells. After incubation for 15 min, 20 μL of PMA (100 ng/mL final conc.) were added. The cells were incubated for 2 h at 37° C. (5% CO2). Then, 20 μL of the supernatant was transferred to a fresh plate and 20 μL of pNPP (5 mM final conc.) was added. The AP reaction was performed for 1 h at RT. The reaction was stopped by addition of 20 μL of NaOH (1 M final conc.) and the absorbance of pNP was measured at 405 nm.

[3] = test system: KL2 release from HEK-293 cells; test: Secondary screen (Example 3a): PMA-stimulated KL2 release from HEK-293 cells, AP readout; settings: Homo sapiens, HEK293, HEK-293 cells expressing KL2-AP, PMA 500 ng/mL, 2 h, read-out: Secondary Screen XC50 KL2
Procedure: as §1, §2, §3
as §4, with “of cells (40,000/well) were added” for “of cells (20,000/well) were added”, “of PMA (500 ng/mL final” for “of PMA (100 ng/mL final”, “was added. AP reaction” for “was added. The AP reaction”

Compound | IC50 [1] | IC50 [2] | IC50 [3]
Cc1ccccc1C(=O)N1CCC(Cc2ccccc2)CC1 [Compound 1] | 10.2 µM | > 128 µM | 2.6 µM
O=C(c1cccs1)N1CCC(Cc2ccccc2)CC1 [Compound 2] | < 0.802 µM | > 128 µM | > 128 µM
Cc1ccccc1C(=O)N1CCN(Cc2ccccc2)CC1 [Compound 3] | 12.3 µM | > 128 µM | > 128 µM
O=C(c1c(Cl)cccc1Cl)N1CCN(Cc2ccc3c(c2)OCO3)CC1 [Compound 4] | 30.8 µM | > 128 µM | > 128 µM
Cc1ccccc1C(=O)N1CCN(Cc2cccc(Cl)c2)CC1 [Compound 5] | 1.4 µM | > 128 µM | > 128 µM
O=C(c1ccccc1F)N1CCN(Cc2cccc(Br)c2)CC1 [Compound 6] | 12.4 µM | > 128 µM | > 128 µM
O=C(c1c(F)cccc1F)N1CCN(Cc2ccc(Cl)s2)CC1 [Compound 7] | 14.1 µM | > 128 µM | > 128 µM
Cc1csc(CN2CCN(C(=O)c3c(F)cccc3Cl)CC2)n1 [Compound 8] | 1.9 µM | > 128 µM | > 128 µM
O=C(c1ccccc1F)N1CCN(Cc2nc(C3CC3)cs2)CC1 [Compound 9] | 27.8 µM | > 128 µM | > 128 µM
COc1cccc(OC)c1C(=O)N1CCN(Cc2cccc3ccccc23)CC1 [Compound 10] | 22.6 µM | > 128 µM | 67.7 µM
COc1cccc(OC)c1C(=O)N1CCN(Cc2cccc(Br)c2)CC1 [Compound 11] | 24.7 µM | > 128 µM | > 128 µM
O=C(NN1CCN(Cc2ccccc2)CC1)C12CC3CC(CC(C3)C1)C2 [Compound 12] | 8.9 µM | > 128 µM | > 128 µM
Cc1ccccc1C(=O)N1CCN(c2ccc(NC(=O)c3ccco3)cc2Cl)CC1 [Compound 13] | 3.5 µM | > 128 µM | 18 µM
Cc1ccccc1C(=O)N1CCN(c2ccc(NC(=O)c3cccnc3)cc2Cl)CC1 [Compound 14] | < 0.802 µM | > 128 µM | 12.8 µM
CCC1CN(C(=O)c2ccc3cc[nH]c3c2)CCC(=O)N1Cc1ccccc1 (stereo not drawn) [Compound 15] | < 0.802 µM | > 128 µM | > 128 µM
CCC1CN(C(=O)c2ccc3c(c2)CCO3)CCC(=O)N1Cc1ccccc1 (stereo not drawn) [Compound 16] | 15.4 µM | > 128 µM | > 128 µM
Cc1ccc(F)c(C(=O)N2CCc3nnc(CCc4ccccc4)n3CC2)c1F [Compound 17] | 15.2 µM | > 128 µM | > 128 µM
CCC(Cn1cnc(-c2ccccc2)c1-c1ccncc1)N1CCOCC1 (stereo not drawn) [Compound 18] | 21.8 µM | > 128 µM | > 128 µM
Cc1ccn(CCCn2cnc(-c3ccccc3)c2-c2ccncc2)n1 [Compound 19] | 1.2 µM | > 128 µM | > 128 µM

Compound | IC50 [1] | IC50 [2] | IC50 [3]
c1ccc(-c2ncn(CCCc3cccnc3)c2-c2ccncc2)cc1 [Compound 20] | < 0.802 µM | > 128 µM | > 128 µM
Nc1cccc(-c2cnc3ccc(NCc4cccs4)nn23)c1 [Compound 21] | 1.3 µM | > 128 µM | 120 µM
CNc1ccc2ncc(-c3cccc(O)c3)n2n1 [Compound 22] | 27.8 µM | > 128 µM | 8.8 µM
COCC(=O)N1CCCc2ccc(NC(=O)Nc3ccc(F)cc3)cc21 [Compound 23] | 3.7 µM | > 128 µM | > 128 µM
COc1ccc(Nc2nc(NCCCO)c3ccccc3n2)cc1 [Compound 24] | 1.1 µM | > 128 µM | > 128 µM
CC(=O)c1cccc(Nc2nc(NCC3CCCO3)c3ccccc3n2)c1 (stereo not drawn) [Compound 25] | 5.6 µM | > 128 µM | 55 µM
Fc1ccc(Nc2nc3nonc3nc2Nc2ccc(F)cc2F)c(F)c1 [Compound 26] | 1.4 µM | 71.2 µM | 22.3 µM
C=C(C)Cn1c(=O)nc(N)c2c(-c3ccc(OC)cc3)csc21 [Compound 27] | < 0.802 µM | > 128 µM | > 128 µM
CCCn1c(=O)nc(N)c2c(-c3ccc(OC)cc3)csc21 [Compound 28] | 1.7 µM | > 128 µM | > 128 µM
Cc1ccc(-n2ncc3c(NC4CCCCC4)ncnc32)c(C)c1 [Compound 29] | < 0.802 µM | > 128 µM | > 128 µM
C/C(=C\c1c(C)[nH]c2ccccc12)[N+](=O)[O-] [Compound 30] | 24.3 µM | > 128 µM | 12.1 µM
Cc1n[nH]c2c1C(c1ccccc1OC(F)F)C(C#N)=C(N)O2 (stereo not drawn) [Compound 31] | 34.5 µM | > 128 µM | 32.2 µM
COc1ccc(-c2cnc3sc(NCCCO)nn23)cc1OC [Compound 32] | 68.7 µM | > 128 µM | 66.5 µM
O=C(CCn1sc2ccccc2c1=O)Nc1ccc2cc[nH]c2c1 [Compound 33] | 5.1 µM | 24.1 µM | 6 µM
CCC(C)NC(=O)c1cc(C(=O)c2ccccc2C)c[nH]1 (stereo not drawn) [Compound 34] | 10.2 µM | > 128 µM | > 128 µM
O=C(c1c[nH]c(-c2nnc3n2CCCCC3)c1)c1cc(F)ccc1O [Compound 35] | 28.2 µM | > 128 µM | > 128 µM
c1ccc(-c2ncn(CCc3c[nH]cn3)c2-c2ccncc2)cc1 [Compound 36] | 19 µM | > 128 µM | > 128 µM
CC(C)c1nccc(-c2c(-c3ccccc3)ncn2CCc2c[nH]cn2)n1 [Compound 37] | 4.99 µM | > 128 µM | > 128 µM
OC(Cc1ccccc1)Cn1cnc(-c2ccccc2)c1-c1cccnc1 (stereo not drawn) [Compound 38] | 108 µM | > 128 µM | > 128 µM
